Several values for one entry are separate records, joined by “and”; a condition that tells them apart may be missing. Equal values may be shown once. Read-outs that look alike come from different tables or passages of the source.
Tests used:
MDA MB 175 = experiment: Cell Titer-Glo cell viability: MDA MB 175; format: cell-based
Method: (§1) Compound nos. […] This panel of cell lines includes an ER− breast carcinoma, primary breast ductal carcinoma, prostate adenocarcinoma, mammary adenocarcinoma, mammary ductal carcinoma, mammary ductal carcinoma, ovary adenocarcinoma, ER+ breast carcinoma, ER-HER2+ mammary ductal carcinoma and an ER+ mammary ductal carcinoma, respectively.
(§2) This assay quantitates the ATP present in order to determine the number of viable cells in culture. Briefly, the compounds were incubated with the cells for 72 h, followed by cell lysis. The resulting luminescent signal is proportional to the amount of ATP present and, therefore, directly proportional to the number of cells present in culture.
(§3) Compounds 2b, 5, 6b and 10a were tested along with derivatives in viability assays as described above by Caliper LifeSciences Systems (Hanover, Md.), in A549, HCT-15, HCT-116, MCF-7, MDA-MB-231, OVCAR3, T47D, COLO205, HT-29, BT-20, HCC1187, HL-60, MDA-MB-175, SW-620, and UACC812 cells.
The inhibitory effects of Compound 8a were tested in two cell lines.

HT-29 = experiment: Cell Titer-Glo cell viability: HT-29; format: cell-based; conditions: Homo sapiens, HT-29, 72 h
Method: as §2
(§4) Compound nos. […] These cell lines are derived from human lung carcinoma, colon adenocarcinoma, colon adenocarcinoma, colon carcinoma, acute promyelocytic leukemia, colon adenocarcinoma, colon adenocarcinoma (from metastatic site lymph node), respectively.
as §3

AXL = molecular target: T1, AXL (Homo sapiens, UniProt P30530); experiment: Caliper kinase profiling: AXL; conditions: for inhibition at 0.01 µM: read-out: Average % Inh @ 10 nM; for inhibition of AXL in panel of 11 kinases: 0.01 μM
T1 sequence (P30530 26-894): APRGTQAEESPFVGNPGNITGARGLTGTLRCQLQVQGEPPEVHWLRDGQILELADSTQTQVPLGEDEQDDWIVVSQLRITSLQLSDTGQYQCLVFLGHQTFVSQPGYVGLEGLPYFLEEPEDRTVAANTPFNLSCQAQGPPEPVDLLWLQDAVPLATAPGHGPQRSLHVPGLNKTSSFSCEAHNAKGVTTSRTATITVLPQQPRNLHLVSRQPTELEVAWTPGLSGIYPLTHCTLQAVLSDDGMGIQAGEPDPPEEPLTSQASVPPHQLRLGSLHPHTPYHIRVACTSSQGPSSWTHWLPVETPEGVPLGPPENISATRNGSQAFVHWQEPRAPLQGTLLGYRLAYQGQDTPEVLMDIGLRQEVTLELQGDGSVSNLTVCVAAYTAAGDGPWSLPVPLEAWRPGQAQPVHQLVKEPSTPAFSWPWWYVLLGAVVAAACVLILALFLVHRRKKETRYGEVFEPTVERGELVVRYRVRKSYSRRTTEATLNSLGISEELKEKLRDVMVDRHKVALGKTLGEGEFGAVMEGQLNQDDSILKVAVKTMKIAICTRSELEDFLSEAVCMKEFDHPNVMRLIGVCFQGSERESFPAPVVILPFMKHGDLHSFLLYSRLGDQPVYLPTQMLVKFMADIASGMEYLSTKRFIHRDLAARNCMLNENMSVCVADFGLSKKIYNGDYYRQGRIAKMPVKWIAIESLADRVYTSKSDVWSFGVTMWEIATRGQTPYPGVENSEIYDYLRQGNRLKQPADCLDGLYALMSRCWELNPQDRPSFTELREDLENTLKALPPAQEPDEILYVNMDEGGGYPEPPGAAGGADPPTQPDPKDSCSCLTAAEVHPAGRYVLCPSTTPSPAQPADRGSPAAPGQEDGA
Method: (§5) The compound was tested at concentrations of 1.0×10^−8 and 1.0×10^−9 M in the RapidKinase192™ panel in duplicate. […] The screening was performed using the Caliper EZReader2, a 4-sipper LabChip, and ProfilerPro Kinase Selectivity Assay Kits 1 and 2. The assay measures the conversion of a fluorescent peptide substrate to a phosphorylated product. Briefly, the reaction mixture was introduced through a capillary sipper onto the microfluidic chip, where the substrate and product were electrophoretically separated and detected by laser-induced fluorescence. The time-dependent fluorescence signal indicates the extent of the reaction.
(§6) The kinases tested were AurA, AurB, AurC, AXL, FAK2, IGF1R, InsR, Mer, MET, TrkB and TrkC.
(§7) The assays were conducted using the Caliper LabChip 3000 and a 12-sipper LabChip as described above.

MCF-7 = experiment: Cell Titer-Glo cell viability: MCF-7; format: cell-based; conditions: Homo sapiens, MCF7, breast cancer
Method: as §1, §2, §3

HCT-15 = experiment: Cell Titer-Glo cell viability: HCT-15; format: cell-based; conditions: Homo sapiens, HCT-15, 72 h, HCT15, colon carcinoma
Method: as §2, §4, §3

LNCaP = experiment: Cell Titer-Glo cell viability: LNCaP; format: cell-based; conditions: Homo sapiens
Method: as §1, §2

HCT-116 = experiment: Cell Titer-Glo cell viability: HCT-116; format: cell-based; conditions: Homo sapiens, HCT116, colon carcinoma
Method: as §2, §4, §3

HL-60 = experiment: Cell Titer-Glo cell viability: HL-60; format: cell-based, human; conditions: Homo sapiens, HL-60, 72 h
Method: as §2, §4, §3

FAK2(PTK2b) = FAK2(PTK2b) (Homo sapiens, UniProt Q14289); experiment: Caliper kinase assay: FAK2(PTK2b); conditions: for inhibition of FAK2 in panel of 11 kinases: 0.01 μM
FAK2(PTK2b), sequence (Q14289 whole entry): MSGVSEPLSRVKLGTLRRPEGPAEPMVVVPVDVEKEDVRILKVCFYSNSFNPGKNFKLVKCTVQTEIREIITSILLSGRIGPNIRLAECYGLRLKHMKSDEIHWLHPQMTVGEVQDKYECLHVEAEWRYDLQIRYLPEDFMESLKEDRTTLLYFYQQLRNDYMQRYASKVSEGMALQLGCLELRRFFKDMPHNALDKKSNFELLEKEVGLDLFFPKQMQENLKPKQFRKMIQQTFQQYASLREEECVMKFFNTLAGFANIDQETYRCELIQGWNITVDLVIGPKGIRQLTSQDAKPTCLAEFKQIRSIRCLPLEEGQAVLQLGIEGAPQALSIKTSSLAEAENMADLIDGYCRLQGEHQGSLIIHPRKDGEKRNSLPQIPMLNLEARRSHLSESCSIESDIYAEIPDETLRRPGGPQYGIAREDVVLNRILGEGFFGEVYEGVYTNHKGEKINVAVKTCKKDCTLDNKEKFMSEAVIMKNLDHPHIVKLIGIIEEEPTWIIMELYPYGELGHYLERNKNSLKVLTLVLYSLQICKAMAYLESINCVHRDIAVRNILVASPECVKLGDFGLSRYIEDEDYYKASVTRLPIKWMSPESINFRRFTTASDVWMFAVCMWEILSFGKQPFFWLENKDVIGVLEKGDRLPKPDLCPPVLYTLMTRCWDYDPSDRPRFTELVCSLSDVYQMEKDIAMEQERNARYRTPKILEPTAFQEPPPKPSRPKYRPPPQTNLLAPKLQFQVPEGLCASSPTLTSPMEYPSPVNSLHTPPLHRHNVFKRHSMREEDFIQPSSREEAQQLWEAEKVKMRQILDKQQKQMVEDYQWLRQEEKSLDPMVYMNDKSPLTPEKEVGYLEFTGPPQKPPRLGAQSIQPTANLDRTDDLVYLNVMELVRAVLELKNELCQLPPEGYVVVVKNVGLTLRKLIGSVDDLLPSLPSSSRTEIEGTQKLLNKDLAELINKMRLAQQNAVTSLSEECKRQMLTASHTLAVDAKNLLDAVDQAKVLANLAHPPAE
Method: as §5, §6, §7

[1] = tested on: Akt phosphorylation induced by IGF-1R in HT-29 cells; experiment: Western blot analysis of Akt phosphorylation induced by IGF-1R; format: cell-based, Human; conditions: then IGF-1 10 ng/mL 10 min, HT-29
SW-620 = experiment: Cell Titer-Glo cell viability: SW-620; format: cell-based; conditions: Homo sapiens, SW-620, 72 h, SW-620, metastatic colorectal cancer
Method: as §2, §4, §3

OVCAR-3 = experiment: Cell Titer-Glo cell viability: OVCAR-3; format: cell-based; conditions: Homo sapiens, OVCAR3, ovarian cancer
Method: as §1, §2, §3

BT-20 = experiment: Cell Titer-Glo cell viability: BT-20; format: cell-based; conditions: Homo sapiens
Method: as §1, §2, §3

IR = molecular target: T2, IR (Homo sapiens, UniProt P06213); experiment: In vitro IR enzymatic assay (ADP-Glo kinase assay); format: biochemical
T2 construct: purchased Millipore 14-803
T2 sequence (P06213 28-1382): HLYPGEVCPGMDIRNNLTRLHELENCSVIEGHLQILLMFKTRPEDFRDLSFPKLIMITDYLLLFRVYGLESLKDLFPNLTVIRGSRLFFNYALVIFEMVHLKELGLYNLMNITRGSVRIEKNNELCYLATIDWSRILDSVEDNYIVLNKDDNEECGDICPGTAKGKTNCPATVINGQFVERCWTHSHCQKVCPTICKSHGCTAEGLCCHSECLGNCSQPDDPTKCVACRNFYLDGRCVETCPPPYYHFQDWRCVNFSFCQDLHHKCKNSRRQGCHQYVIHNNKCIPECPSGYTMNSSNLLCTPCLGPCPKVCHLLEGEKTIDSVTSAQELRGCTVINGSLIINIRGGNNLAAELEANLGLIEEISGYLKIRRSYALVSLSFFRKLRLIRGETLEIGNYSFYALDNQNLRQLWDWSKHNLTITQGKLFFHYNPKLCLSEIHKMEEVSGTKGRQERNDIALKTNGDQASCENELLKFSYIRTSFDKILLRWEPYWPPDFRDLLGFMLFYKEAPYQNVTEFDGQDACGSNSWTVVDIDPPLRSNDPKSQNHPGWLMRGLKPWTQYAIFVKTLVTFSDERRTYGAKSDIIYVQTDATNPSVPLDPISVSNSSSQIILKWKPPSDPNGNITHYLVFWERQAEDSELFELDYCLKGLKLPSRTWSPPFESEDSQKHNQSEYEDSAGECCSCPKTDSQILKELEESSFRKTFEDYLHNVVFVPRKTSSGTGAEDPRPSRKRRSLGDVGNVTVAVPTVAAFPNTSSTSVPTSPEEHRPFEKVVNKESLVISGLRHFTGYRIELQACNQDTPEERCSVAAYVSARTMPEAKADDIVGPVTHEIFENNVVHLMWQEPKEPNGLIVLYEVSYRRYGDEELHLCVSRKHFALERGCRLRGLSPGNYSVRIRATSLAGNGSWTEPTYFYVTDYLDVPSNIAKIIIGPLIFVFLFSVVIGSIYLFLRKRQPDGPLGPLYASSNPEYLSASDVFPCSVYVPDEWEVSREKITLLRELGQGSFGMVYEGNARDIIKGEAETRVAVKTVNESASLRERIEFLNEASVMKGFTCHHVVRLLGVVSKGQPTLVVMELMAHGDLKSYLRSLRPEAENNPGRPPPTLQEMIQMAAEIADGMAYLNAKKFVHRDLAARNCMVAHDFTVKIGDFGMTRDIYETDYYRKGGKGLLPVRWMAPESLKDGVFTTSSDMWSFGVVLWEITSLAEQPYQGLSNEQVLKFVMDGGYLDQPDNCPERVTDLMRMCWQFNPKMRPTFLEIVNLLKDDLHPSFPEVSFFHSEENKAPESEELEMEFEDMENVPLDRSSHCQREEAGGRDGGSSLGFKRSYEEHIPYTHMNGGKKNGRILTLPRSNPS
Method: IC50 values of the compounds of the invention against IGF-1R and IR were measured in vitro using an ADP-Glo kinase assay Kit (Promega). […] Kinase reactions in both assays were conducted at 30° C. for 20 min with increasing concentrations of compounds of the invention.

[2] = HL60, promyelocytic leukemia (second entry of the table), 72 h
[3] = HL-60, promyelocytic leukemia, 72 h
[4] = MDA-MB-175, breast cancer, 72 h incubation, Cell Titer-Glo
[5] = HT-29, colon adenocarcinoma, 72 h incubation, Cell Titer-Glo
[6] = 72 h incubation, Cell Titer-Glo
[7] = Prostate cancer, 72 h incubation, Cell Titer-Glo
[8] = HL60, promyelocytic leukemia, 72 h incubation, Cell Titer-Glo
[9] = BT-20, breast cancer, 72 h incubation, Cell Titer-Glo

Row | Structure (SMILES) | IC50 (HT-29; HT-29, colon cancer, 72 h) [nM] | inhibition at 0.01 µM (AXL) [%] | IC50 (HCT-15; 72 h) [nM] | IC50 (HL-60; [2]) [nM] | IC50 (HL-60; [3]) [nM] | phosphorylated AKT levels normalized to actin levels (pAKT/actin) ([1]; 1 nM compound 2 h) | phosphorylated AKT levels normalized to actin levels (pAKT/actin) ([1]; 10 nM compound 2 h) | phosphorylated AKT levels normalized to actin levels (pAKT/actin) ([1]; 100 nM compound 2 h) | IC50 (SW-620; 72 h) [nM] | IC50 (MDA MB 175; [4]) [nM] | IC50 (HT-29; [5]) [nM] | inhibition of AXL in panel of 11 kinases (AXL) | IC50 (MCF-7; [6]) [nM] | IC50 (HCT-15; [6]) [nM] | IC50 (LNCaP; [7]) [nM] | IC50 (HL-60; [8]) [nM] | IC50 (IR; activated IR, read-out: IC50) | IC50 (SW-620; [6]) [nM] | IC50 (OVCAR-3; [6]) [nM] | IC50 (BT-20; [9]) [nM] | also measured
1 | CC(C)c1cc(Nc2nc(N3CCCC3C(=O)Nc3ccc(F)nc3)nc3c2CCC3)n[nH]1 (single isomer, unassigned) [Compound 8b] | < 10 | 40 to 59 | < 10000 | < 10 | 10 | 0.31 | 0.04 | 0.02 | 1000 | – | – | – | – | – | – | – | – | – | – | – | IC50 (MDA MB 175; MDAMB175, breast cancer, 72 h): < 10000 nM; IC50 (HT-29; HT29, colon adenocarcinoma (second entry of the table), 72 h): < 10 nM; IC50 (AXL): 9.76 nM; inhibition at 0.001 µM (AXL; read-out: Average % Inh @ 1 nM): < 39%; IC50 (MCF-7; 72 h): < 10000 nM; IC50 (LNCaP; prostate cancer, 72 h): < 10000 nM; IC50 (HCT-116; 72 h): 1000 nM; IC50 (FAK2(PTK2b)): 2.36 nM; IC50 (OVCAR-3; 72 h): 1000 nM; IC50 (BT-20; BT-20, BT20, breast cancer, 72 h): < 10000 nM
2 | O=C(Nc1ccc(F)nc1)C1CCN1c1nc2c(c(Nc3cc(C4CC4)[nH]n3)n1)CCC2 (racemic) [Compound 5, 1-(4-(5-cyclopropyl-1H-pyrazol-3-ylamino)-6,7-dihydro-5H-cyclopenta[d]pyrimidin-2-yl)-N-(6-fluoropyridin-3-yl)azetidine-2-carboxamide] | – | – | – | – | – | 0.61 | 0.04 | 0.00 | – | 1000 | 10 | strongly inhibited | < 1000 | < 10000 | 100 | < 100 | 8.3e-09 M and 1.2e-08 M | < 1000 | < 1000 | < 10000 | IC50 (HCT-116; [6]): < 10000 nM; inhibition of FAK2 in panel of 11 kinases (FAK2(PTK2b)): strongly inhibited; inhibition at 0.03 µM (IR; activated IR, 30 nM, average, read-out: % Inh @ 30 nM Avg): 76%
3 | O=C(Nc1cnccn1)C1CCCN1c1nc2c(c(Nc3cc(C4CC4)[nH]n3)n1)CCC2 (single isomer, unassigned) [Compound 6b] | – | – | – | – | – | 0.18 | 0.00 | 0.00 | – | < 1000 | < 10 | strongly inhibited | < 1000 | 1000 | 100 | < 1000 | 4.13e-08 M | < 1000 | < 100 | 1000 | IC50 (HCT-116; [6]): < 1000 nM; inhibition of FAK2 in panel of 11 kinases (FAK2(PTK2b)): strongly inhibited; phosphorylated AKT levels normalized to actin levels (pAKT/actin) ([1]; 0.1 nM compound 2 h): 0.87
4 | O=C(Nc1ccc(F)nc1)C1CCCN1c1nc2c(c(Nc3cc(C4CC4)[nH]n3)n1)CCC2 (single isomer, unassigned) [Compound 2b, 1-(4-(5-cyclopropyl-1H-pyrazol-3-ylamino)-6,7-dihydro-5H-cyclopenta[d]pyrimidin-2-yl)-N-(6-fluoropyridin-3-yl)pyrrolidine-2-carboxamide] | 500 | 40 to 59 | < 10000 | < 10 | < 10000 | 0.80 | 0.22 | 0.03 | 100 | < 10000 | – | – | 1000 | 1000 | < 1000 | < 1000 | 5.7e-09 M | < 1000 | < 1000 | 1000 | inhibition at 0.1 µM (AXL; read-out: Average % Inh @ 100 nM): > 60%; inhibition at 1 µM (AXL; read-out: Average % Inh @ 1 μM): > 60%; Hill Slope N1 (IR; IR, ATP 50 μM, run N1): 1.34; IC50 (IR; IR, ATP 50 μM, run N1, read-out: IC50 (M) N1): 5.51e-09 M; Hill Slope N2 (IR; IR, ATP 50 μM, run N2): 1.13; IC50 (IR; IR, ATP 50 μM, run N2, read-out: IC50 (M) N2): 4.07e-09 M
